Molecular target: P2X7 (Homo sapiens (Human), UniProt Q99572)
Assay: P2X7 antagonism in human PBMCs (IL-1β release, LPS + Bz-ATP)
Format: cell-based
Details: LPS 30 ng/ml + 0.5 mM Bz-ATP; for remaining activity at 10 µM: P2X7, 10 μM test compound, read-out: PBMC 10 μM (% control); for PBMC 10 μM (% control): 10 μM test compound
Protocol: P2X7 Antagonism in Human Peripheral Blood Mononuclear Cells (PBMCs) and Mouse/Human Whole Blood.
Human blood was collected using a blood donor program. PBMCs were isolated from blood using a Ficoll density gradient technique. Briefly, blood was laid on Ficoll solution and centrifuged at RT for 20 minutes at 2000 rpm. The buffy layer (between red blood cells and plasma) was carefully collected by aspiration, washed with PBS and centrifuged again at 1500 rpm for 15 minutes. The resulting cell pellet was washed and plated on 96 well-plates for experiments. For the Mouse/Human Whole Blood experiments, 150 μl of either mouse or human blood was platted on 96 well-plates. Lipopolysaccharide (LPS) (30 ng/ml) was added to each well and incubated for 1 hour. Test compounds were then added and incubated for 30 minutes. The P2X7 agonist, 2′(3′)-O-(4-benzoylbenzoyl) adenosine 5′-triphosphate (Bz-ATP) was then added at a final concentration of 0.5 mM (PBMC) or 1 mM (blood). Cells were incubated for an additional 1.5 hours. At that point, supernatant was collected and stored for IL-1β assay using manufacturer's protocol for enzyme-linked immunosorbent assay (ELISA). Data was expressed as percent control, where control is defined as the difference in IL-113 release in LPS+Bz-ATP samples and LPS only samples. Data was plotted as response (% control) versus concentration to generate IC50 values. […] In Table 2, when the data cell has been left blank, it is intended to mean that the compound was not tested in that assay.

P2X7, sequence (Q99572 whole entry): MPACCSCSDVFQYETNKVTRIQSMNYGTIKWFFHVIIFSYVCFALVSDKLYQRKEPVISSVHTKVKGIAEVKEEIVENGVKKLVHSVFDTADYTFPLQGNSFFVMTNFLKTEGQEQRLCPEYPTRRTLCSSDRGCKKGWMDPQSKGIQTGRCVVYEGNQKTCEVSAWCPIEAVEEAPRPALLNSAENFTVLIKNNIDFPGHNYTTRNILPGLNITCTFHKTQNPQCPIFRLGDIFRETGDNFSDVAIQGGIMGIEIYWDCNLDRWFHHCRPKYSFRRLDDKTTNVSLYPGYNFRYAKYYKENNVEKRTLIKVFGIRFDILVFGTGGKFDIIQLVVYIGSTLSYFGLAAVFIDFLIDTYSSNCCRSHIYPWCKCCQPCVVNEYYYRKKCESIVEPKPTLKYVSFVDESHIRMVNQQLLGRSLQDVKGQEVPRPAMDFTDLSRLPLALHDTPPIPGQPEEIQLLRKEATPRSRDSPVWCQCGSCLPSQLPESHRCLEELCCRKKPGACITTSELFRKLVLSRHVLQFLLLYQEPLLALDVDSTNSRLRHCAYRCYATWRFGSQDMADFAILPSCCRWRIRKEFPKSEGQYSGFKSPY

| SMILES | remaining activity at 10 µM [%] | PBMC 10 μM (% control) |
| --- | --- | --- |
| C[C@H]1Cn2c(nnc2-c2cnccn2)C(=O)N1Cc1cccc(Cl)c1Cl [Example 13, (6S)-7-(2,3-Dichlorobenzyl)-6-methyl-3-pyrazin-2-yl-6,7-dihydro[1,2,4]triazolo[4,3-a]pyrazin-8(5H)-one] | – | 15.4 |
| C[C@H]1Cn2c(nnc2-c2cnccn2)C(=O)N1Cc1cccc(C(F)(F)F)c1Cl [Example 16, (6S)-7-[2-Chloro-3-(trifluoromethyl)benzyl]-6-methyl-3-pyrazin-2-yl-6,7-dihydro[1,2,4]triazolo[4,3-a]pyrazin-8(5H)-one] | – | 13.4 |
| CC[C@H]1Cn2c(nnc2-c2cnccn2)C(=O)N1Cc1cccc(C(F)(F)F)c1Cl [Example 71, (6S)-7-[2-Chloro-3-(trifluoromethyl)benzyl]-6-ethyl-3-pyrazin-2-yl-6,7-dihydro[1,2,4]triazolo[4,3-a]pyrazin-8(5H)-one] | – | 1.2 |
| CC(c1cccc(C(F)(F)F)c1Cl)N1C(=O)c2nnc(-c3cnccn3)n2C[C@@H]1C (stereo partly drawn) [Example 93] | – | 4.5 |

More lines, main results first:

| remaining activity at 10 µM [%] | SMILES | PBMC 10 μM (% control) |
| --- | --- | --- |
| 15.9 | O=C1c2nnc(-c3ncccn3)n2C[C@@H](C2CC2)N1Cc1cccc(C(F)(F)F)c1Cl (single isomer, unassigned) [Example 65, (6R*)-7-[2-Chloro-3-(trifluoromethyl)benzyl]-6-cyclopropyl-3-pyrimidin-2-yl-6,7-dihydro[1,2,4]triazolo[4,3-a]pyrazin-8(5H)-one] | – |
| 20.7 | O=C1c2nnc(-c3ncccn3)n2C[C@H](C2CC2)N1Cc1cccc(C(F)(F)F)c1Cl (single isomer, unassigned) [Example 66, (6S*)-7-[2-Chloro-3-(trifluoromethyl)benzyl]-6-cyclopropyl-3-pyrimidin-2-yl-6,7-dihydro[1,2,4]triazolo[4,3-a]pyrazin-8(5H)-one] | – |

From US10047092B2 (Janssen Pharmaceutica NV, priority 2013, dated 2018)
